# Measurements from patent US8372978B2, “Salts of methyl 2-((R)-(3-chlorophenyl)((R)-1-((S)-2-(methylamino)-3-((R)-tetrahydro-2H-pyran-3-yl)propylcarbamoyl)piperidin-3-yl)methoxy)ethylcarbamate” (Vitae Pharmaceuticals, Inc., priority 2009, dated 2013).
# Structures can show the parent of a compound that is named as a salt.
# Tests used:
# [1] = Pharmacokinetics after oral administration, plasma by LC/MS/MS, dog; type: in vivo; details: for DNAUC0-t / AUC(0-t) / Cmax: oral; for AUC(0-t) / Cmax: plasma
# Description: (§1) IV formulations were prepared in 1% DMSO in sterile saline. PO formulations were prepared in 0.5% methylcellulose in water, unless otherwise indicated. After compound administration, plasma samples were obtained through 24 hours post-dosing from each animal using K2EDTA as the anticoagulant. Plasma samples were treated with two volumes of acetonitrile containing an internal standard (ritanserin). Samples were centrifuged at 4,000 rpm for 10 minutes at 25° C. Ten microliters of the supernatant was analyzed using LC/MS/MS.
# [2] = Pharmacokinetics after oral administration, plasma by LC/MS/MS, rat; type: in vivo; details: for AUC(0-t) / DNAUC0-t / Cmax: oral, 10 mg/kg (as salt), 0.5% methylcellulose in water
# Description: as §1, with “LC/MS/MS. Standard curves are prepared for each species and range from 1.0 to 500 ng/mL The compound of Formula (I) and the internal standard were separated by reverse-phase HPLC using a gradient mobile phase and detected by +APCI monitoring the transitions m/z 525→327 (compound of Formula (I)) and m/z 478→193 (ritanserin).” for “LC/MS/MS.”
# [3] = Pharmacokinetics after oral administration, plasma by LC/MS/MS, monkey; type: in vivo; details: for DNAUC0-t / AUC(0-t) / Cmax: oral, 0.5% methylcellulose in water; for AUC(0-t) / Cmax: plasma
# Description: as §1
# Water solubility = type: physicochemical
# Hygroscopicity = type: physicochemical
# [4] = 1 mg/kg (as salt), 2% DMSO in water
# [5] = 2 mg/kg (as salt), 0.5% methylcellulose in water
compound,measurement,setting,value
"CN[C@H](CNC(=O)N1CCC[C@@H]([C@@H](OCCNC(=O)OC)c2cccc(Cl)c2)C1)C[C@H]1CCCOC1.O=C(O)/C=C/C(=O)O [Fumarate, methyl 2-((R)-(3-chlorophenyl)((R)-1-((S)-2-(methylamino)-3-((R)-tetrahydro-2H-pyran-3-yl)propylcarbamoyl)piperidin-3-yl)methoxy)ethylcarbamate fumaric acid salt]",DNAUC0-t,[1]; [4],458 ng·h/mL
same,AUC(0-t),[1]; [4],458 ng·h/mL
same,Cmax,[1]; [4],286 ng/mL
same,AUC(0-t),[2],477 ng·h/mL
same,DNAUC0-t,[2],48 ng·h/mL
same,Cmax,[2]; plasma,156 ng/mL
same,DNAUC0-t,[3]; 2 mg/kg (as salt),191 ng·h/mL
same,AUC(0-t),[3]; 2 mg/kg (as salt),381 ng·h/mL
same,Cmax,[3]; 2 mg/kg (as salt),145 ng/mL
"CN[C@H](CNC(=O)N1CCC[C@@H]([C@@H](OCCNC(=O)OC)c2cccc(Cl)c2)C1)C[C@H]1CCCOC1 [Mucate, methyl 2-((R)-(3-chlorophenyl)((R)-1-((S)-2-(methylamino)-3-((R)-tetrahydro-2H-pyran-3-yl)propylcarbamoyl)piperidin-3-yl)methoxy)ethylcarbamate mucic acid salt (Form B)]",in vivo bioavailability (in words),[1],good in vivo bioavailability
same,DNAUC0-t,[1]; [5],447 ng·h/mL
same,AUC(0-t),[1]; [5],895 ng·h/mL
same,Cmax,[1]; [5],294 ng/mL
same,in vivo bioavailability (in words),[2],good in vivo bioavailability
same,DNAUC0-t,[2],68 ng·h/mL
same,Cmax,[2]; plasma,238 ng/mL
same,AUC(0-t),"[2]; plasma, read-out: AUC0-t",681 ng·h/mL
same,water solubility (in words),Water solubility,good water solubility
same,solubility,"Water solubility; water, temperature not stated",65 ± 5 mg/mL
same,hygroscopicity (in words),Hygroscopicity,sufficiently non-hygroscopic
same,in vivo bioavailability (in words),[3],good in vivo bioavailability
same,DNAUC0-t,[3]; 3 mg/kg (as salt),269 ng·h/mL
same,AUC(0-t),[3]; 3 mg/kg (as salt),807 ng·h/mL
same,Cmax,[3]; 3 mg/kg (as salt),266 ng/mL
